From ChEMBL document CHEMBL1201862, “PubChem BioAssay data set” (2004)
The source made the active and inactive calls.

Tests used:
Hexokinase HKDC1 = target: T1, Hexokinase HKDC1 (Homo sapiens, UniProt Q2TB90); assay: HKDC1 hexokinase inhibitors, dose response, biochemical, W721R variant (AID 504729); assay type: functional
T1 sequence (Q2TB90 whole entry): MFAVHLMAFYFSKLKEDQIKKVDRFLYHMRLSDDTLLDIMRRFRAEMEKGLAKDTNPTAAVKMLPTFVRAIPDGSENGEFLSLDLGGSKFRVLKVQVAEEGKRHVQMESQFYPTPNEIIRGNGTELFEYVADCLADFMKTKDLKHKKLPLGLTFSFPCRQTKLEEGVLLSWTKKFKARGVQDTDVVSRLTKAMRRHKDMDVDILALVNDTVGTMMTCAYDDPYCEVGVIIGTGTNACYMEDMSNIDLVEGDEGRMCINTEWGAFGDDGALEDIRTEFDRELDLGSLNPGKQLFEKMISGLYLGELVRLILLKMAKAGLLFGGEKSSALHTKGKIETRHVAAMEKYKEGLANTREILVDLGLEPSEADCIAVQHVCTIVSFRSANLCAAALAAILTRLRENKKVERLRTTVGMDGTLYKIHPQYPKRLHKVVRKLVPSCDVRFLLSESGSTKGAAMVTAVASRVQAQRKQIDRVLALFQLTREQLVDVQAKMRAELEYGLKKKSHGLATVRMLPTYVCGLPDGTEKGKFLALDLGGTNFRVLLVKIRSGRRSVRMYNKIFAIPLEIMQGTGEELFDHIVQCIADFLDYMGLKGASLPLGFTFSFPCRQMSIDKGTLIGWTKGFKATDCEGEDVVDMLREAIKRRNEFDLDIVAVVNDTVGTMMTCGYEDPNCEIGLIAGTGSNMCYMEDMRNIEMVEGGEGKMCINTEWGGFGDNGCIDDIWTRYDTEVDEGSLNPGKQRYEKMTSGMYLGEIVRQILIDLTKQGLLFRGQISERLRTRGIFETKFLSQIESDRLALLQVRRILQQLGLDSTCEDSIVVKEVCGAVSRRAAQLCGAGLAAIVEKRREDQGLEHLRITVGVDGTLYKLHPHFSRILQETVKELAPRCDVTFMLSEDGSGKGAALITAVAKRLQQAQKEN

[1] = target: T2, Mannose-6-phosphate isomerase (Homo sapiens, UniProt P34949); assay: human PMI inhibitors, high substrate, primary screen, biochemical, fluorescence intensity, high mannose 6-phosphate (AID 1220)
T2 sequence (P34949 whole entry): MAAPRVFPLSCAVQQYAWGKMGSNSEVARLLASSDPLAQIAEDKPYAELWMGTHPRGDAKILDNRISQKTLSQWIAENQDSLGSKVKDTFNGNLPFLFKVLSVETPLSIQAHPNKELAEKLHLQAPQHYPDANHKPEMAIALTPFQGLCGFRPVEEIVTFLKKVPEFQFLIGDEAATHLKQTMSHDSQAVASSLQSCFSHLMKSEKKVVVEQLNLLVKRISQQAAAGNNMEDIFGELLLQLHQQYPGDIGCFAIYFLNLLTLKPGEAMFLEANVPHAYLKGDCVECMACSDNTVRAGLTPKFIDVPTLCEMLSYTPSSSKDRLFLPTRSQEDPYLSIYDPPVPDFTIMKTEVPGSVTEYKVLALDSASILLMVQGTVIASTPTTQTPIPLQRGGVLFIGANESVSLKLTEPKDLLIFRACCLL

[2] = target: T3, 1-phosphatidylinositol 4,5-bisphosphate phosphodiesterase beta-3 (Homo sapiens, UniProt Q01970); assay: Fluorescence-based biochemical high throughput dose response assay to identify inhibitors of phospholipase C isozymes (PLC-B3).
T3 sequence (Q01970 whole entry): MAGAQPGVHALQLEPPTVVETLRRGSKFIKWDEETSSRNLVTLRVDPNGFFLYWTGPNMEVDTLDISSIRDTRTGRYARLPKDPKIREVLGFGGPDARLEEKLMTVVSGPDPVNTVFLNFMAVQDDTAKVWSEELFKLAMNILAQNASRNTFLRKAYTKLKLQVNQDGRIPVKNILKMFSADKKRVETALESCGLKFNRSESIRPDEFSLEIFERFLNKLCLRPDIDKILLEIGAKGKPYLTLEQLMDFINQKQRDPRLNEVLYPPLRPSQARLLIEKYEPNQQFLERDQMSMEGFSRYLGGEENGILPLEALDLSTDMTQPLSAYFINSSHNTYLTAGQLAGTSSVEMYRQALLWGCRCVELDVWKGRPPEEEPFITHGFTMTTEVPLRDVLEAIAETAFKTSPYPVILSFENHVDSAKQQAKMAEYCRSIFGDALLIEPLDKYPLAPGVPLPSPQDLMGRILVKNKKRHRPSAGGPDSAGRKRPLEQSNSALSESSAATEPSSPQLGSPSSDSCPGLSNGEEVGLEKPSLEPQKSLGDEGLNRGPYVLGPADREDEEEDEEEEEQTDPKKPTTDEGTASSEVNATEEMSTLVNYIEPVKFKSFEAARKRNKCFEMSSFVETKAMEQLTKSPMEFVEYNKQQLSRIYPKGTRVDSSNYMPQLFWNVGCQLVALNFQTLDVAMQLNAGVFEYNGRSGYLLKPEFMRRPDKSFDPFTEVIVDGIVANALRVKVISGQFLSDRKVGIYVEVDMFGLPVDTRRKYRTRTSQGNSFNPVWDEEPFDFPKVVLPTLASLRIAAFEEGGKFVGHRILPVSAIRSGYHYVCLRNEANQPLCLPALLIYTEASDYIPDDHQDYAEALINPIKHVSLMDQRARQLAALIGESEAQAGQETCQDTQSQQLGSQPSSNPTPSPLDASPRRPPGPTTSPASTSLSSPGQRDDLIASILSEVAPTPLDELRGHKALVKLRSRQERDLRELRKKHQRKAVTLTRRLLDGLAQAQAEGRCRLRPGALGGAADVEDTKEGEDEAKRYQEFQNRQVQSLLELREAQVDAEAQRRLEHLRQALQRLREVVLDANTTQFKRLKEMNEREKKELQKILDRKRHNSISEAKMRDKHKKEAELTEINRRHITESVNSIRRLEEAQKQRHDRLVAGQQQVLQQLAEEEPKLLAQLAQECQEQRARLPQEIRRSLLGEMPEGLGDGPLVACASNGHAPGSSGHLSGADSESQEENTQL

[3] = C. albicans growth with fluconazole, confirmation, fluorescence, retest (AID 2467); assay type: functional, cell-based

Structure (SMILES) | IC50 (Hexokinase HKDC1) | IC50 [1] | IC50 [2] | EC50 [3]
Cc1cc(C)c(S(=O)(=O)Nc2cc(SCC(=O)O)c(O)c3ccccc23)cc1C | 4.72 µM (active) | – | – | –
O=C(O)c1cc(N2N=C(C(F)(F)F)/C(=C/C=C/c3ccco3)C2=O)ccc1Cl | 5.66 µM (active) | > 50 µM (not active) | – | –
O=C(/C=C/c1ccco1)NC(=S)Nc1cccc(C(=O)O)c1 | – | – | > 122 µM (inactive) | –
CNCc1ccccc1Sc1ccc(O)c(O)c1 | – | 25.9 µM (active) | – | > 38 µM (not active)
